Experimental findings from US20100022491A1, “4-HYDROXY-2-OXO-2,3-DIHYDRO-1,3-BENZOTHIAZOL-7YL COMPOUNDS FOR MODULATION OF B2-ADRENORECEPTOR ACTIVITY” (ASTRAZENECA AB, priority 2006, published 2010) are described below.

Test [1] addresses T1, recombinant human α1D receptor (Homo sapiens, UniProt P25100).
T1 construct: expressed in transfected cells; host or cells: HEK293
T1 sequence (P25100 1-572): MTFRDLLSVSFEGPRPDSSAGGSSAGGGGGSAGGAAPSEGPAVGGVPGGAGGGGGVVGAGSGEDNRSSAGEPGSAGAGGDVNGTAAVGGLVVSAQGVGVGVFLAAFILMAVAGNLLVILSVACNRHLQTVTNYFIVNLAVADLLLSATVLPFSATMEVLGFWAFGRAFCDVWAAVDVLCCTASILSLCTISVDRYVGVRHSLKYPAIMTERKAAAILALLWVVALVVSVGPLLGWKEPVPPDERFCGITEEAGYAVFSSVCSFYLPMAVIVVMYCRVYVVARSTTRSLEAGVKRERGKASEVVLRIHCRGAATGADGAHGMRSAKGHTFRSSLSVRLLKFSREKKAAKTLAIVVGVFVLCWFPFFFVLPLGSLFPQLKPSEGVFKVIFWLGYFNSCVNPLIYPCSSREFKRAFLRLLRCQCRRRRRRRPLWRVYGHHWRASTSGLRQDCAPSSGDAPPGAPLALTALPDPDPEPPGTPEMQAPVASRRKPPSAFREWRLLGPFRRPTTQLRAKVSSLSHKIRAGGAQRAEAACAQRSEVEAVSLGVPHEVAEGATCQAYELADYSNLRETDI
As to the kind of experiment: Adrenergic α1D selectivity binding assay ([3H]-prazosin). Particulars: inhibition of [3H]-prazosin (0.3 nM) binding, HEK293 membranes; read-out: α1 bind pIC50 (converted). In a few lines: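 Displacement of [3H]-prazosin (0.3 nM) from recombinant human α1D receptor in HEK293-cell membranes, 2 h at room temperature, pH 7.4 HEPES/EDTA/gelatin buffer. Filtration and scintillation counting, non-specific binding set with 10 μM BMY7378; four-parameter logistic fit gives pIC50.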

Test [2] concerns the target T2, recombinant human Dopamine Subtype D2s receptors (Homo sapiens, UniProt P14416).
T2 construct: purchased Perkin Elmer
Put plainly: Dopamine D2 selectivity binding assay ([3H]-spiperone). To be noted: inhibition of [3H]-spiperone (0.16 nM) binding; read-out: D2 bind pIC50 (converted). In short, it runs like this:
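Displacement of [3H]-spiperone (0.16 nM final) from human D2s receptor membranes in pH 7.4 HEPES buffer over 2 h at room temperature, then filtration and scintillation counting. Specific binding taken as vehicle minus 10 μM haloperidol wells. Potency given as pIC50 from a four-parameter logistic curve.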

Where a name gives a salt, the structure may show the parent alone.

T2 sequence (P14416 1-414 isoform P14416-2): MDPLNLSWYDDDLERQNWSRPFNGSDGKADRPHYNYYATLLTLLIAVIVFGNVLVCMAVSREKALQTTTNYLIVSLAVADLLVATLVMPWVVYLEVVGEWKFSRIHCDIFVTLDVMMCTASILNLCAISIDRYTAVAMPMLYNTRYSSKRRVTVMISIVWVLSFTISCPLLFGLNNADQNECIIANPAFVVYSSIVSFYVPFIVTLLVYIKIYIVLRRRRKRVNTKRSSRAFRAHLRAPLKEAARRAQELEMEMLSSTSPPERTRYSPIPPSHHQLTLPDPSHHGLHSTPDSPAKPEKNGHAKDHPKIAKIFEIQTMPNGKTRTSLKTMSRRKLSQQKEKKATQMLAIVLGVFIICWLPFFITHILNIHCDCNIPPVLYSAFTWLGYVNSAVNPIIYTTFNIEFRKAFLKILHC

`O=C(CCNCCc1ccccc1)N(CCNCCc1ccc(O)c2[nH]c(=O)sc12)C1CCC(F)(F)CC1` [Example 4, N-(4,4-Difluorocyclohexyl)-N-(2-{[2-(4-hydroxy-2-oxo-2,3-dihydro-1,3-benzothiazol-7-yl)ethyl]amino}ethyl)-N^3-(2-phenylethyl)-β-alaninamide bis-trifluoroacetic acid salt]: the IC50 in test [1] is 200 nM; in test [2], 2000 nM.
Taken in the same sequence, the figures for `O=C(CCNCCc1ccccc1)N(CCNCCc1ccc(O)c2[nH]c(=O)sc12)C1CCCCC1` [Example 5, N-Cyclohexyl-N-(2-{[2-(4-hydroxy-2-oxo-2,3-dihydro-1,3-benzothiazol-7-yl)ethyl]amino}ethyl)-N^3-(2-phenylethyl)-β-alaninamide bis-trifluoroacetic acid salt] were 100 nM and 398 nM.
Regarding `Cc1cccc(CCNCCC(=O)N(CCNCCc2ccc(O)c3[nH]c(=O)sc23)C2CCCCCC2)c1` [Example 85, N^1-Cycloheptyl-N^1-(2-{[2-(4-hydroxy-2-oxo-2,3-dihydro-1,3-benzothiazol-7-yl)ethyl]amino}ethyl)-N^3-[2-(3-methylphenyl)ethyl]-β-alaninamide bis-trifluoroacetic acid salt], the IC50 is 50.1 nM in test [1] and 79.4 nM in test [2].
Consider `COc1ccc(CCNCCC(=O)N(CCNCCc2ccc(O)c3[nH]c(=O)sc23)C2CCCCCC2)cc1OC` [Example 86, N^1-Cycloheptyl-N^3-[2-(3,4-dimethoxyphenyl)ethyl]-N^1-(2-{[2-(4-hydroxy-2-oxo-2,3-dihydro-1,3-benzothiazol-7-yl)ethyl]amino}ethyl)-β-alaninamide bis-trifluoroacetic acid salt], for which the IC50 in test [1] was 251 nM; in test [2], 200 nM.
For `O=C(CCNCCc1ccc(O)c2[nH]c(=O)sc12)N(CCNCCc1ccc(O)c2[nH]c(=O)sc12)C1CCCCCC1` [Example 87, bis-trifluoroacetic acid salt] the same measures were 251 nM and 39.8 nM.
For `O=C(CCNCCc1ccc2c(c1)OCCO2)N(CCNCCc1ccc(O)c2[nH]c(=O)sc12)C1CCCCCC1` [Example 88, N-Cycloheptyl-N^3-[2-(2,3-dihydro-1,4-benzodioxin-6-yl)ethyl]-N^1-(2-{[2-(4-hydroxy-2-oxo-2,3-dihydro-1,3-benzothiazol-7-yl)ethyl]amino}ethyl)-β-alaninamide bis-trifluoroacetic acid salt] the same measures were 251 nM and 79.4 nM.
Taken in the same sequence, the figures for `O=C(CCNCCc1ccc(O)c(Cl)c1)N(CCNCCc1ccc(O)c2[nH]c(=O)sc12)C1CCCCC1` [Example 89, N^3-[2-(3-chloro-4-hydroxyphenyl)ethyl]-N^1-cyclohexyl-N^1-(2-{[2-(4-hydroxy-2-oxo-2,3-dihydro-1,3-benzothiazol-7-yl)ethyl]amino}ethyl)-β-alaninamide bis-trifluoroacetic acid salt] were 50.1 nM and 79.4 nM.
For the compound `O=C(CCNCCc1cccc(O)c1)N(CCNCCc1ccc(O)c2[nH]c(=O)sc12)C1CCCCCCC1` [Example 90, N^1-Cyclooctyl-N^1-(2-{[2-(4-hydroxy-2-oxo-2,3-dihydro-1,3-benzothiazol-7-yl)ethyl]amino}ethyl)-N^3-[2-(3-hydroxyphenyl)ethyl]-β-alaninamide bis-trifluoroacetic acid salt], the figures for the IC50 in test [1] and in test [2] were 63.1 nM and 79.4 nM, respectively.
On to `CC1(C)CCC(N(CCNCCc2ccc(O)c3[nH]c(=O)sc23)C(=O)CCNCCc2cccc(O)c2)CC1` [Example 91, N^1-(4,4-Dimethylcyclohexyl)-N^1-(2-{[2-(4-hydroxy-2-oxo-2,3-dihydro-1,3-benzothiazol-7-yl)ethyl]amino}ethyl)-N^3-[2-(3-hydroxyphenyl)ethyl]-β-alaninamide bis-trifluoroacetic acid salt], for which the IC50 in test [1] is 126 nM; in test [2], 39.8 nM.
